{
  "source": "patent US20120093948A1",
  "about": "“Nitric Oxide Treatments” (priority 2009, published 2012)",
  "key": {"Rabbit": {"system": "Rabbit", "conditions": "less than 1 ppm, duration 24 days; cited from earlier work"}, "Guinea Pig": {"system": "Guinea Pig", "conditions": "less than 1 ppm, duration 7 days; cited from earlier work"}, "man": {"system": "man", "conditions": "cited from earlier work"}, "Mouse": {"system": "Mouse", "conditions": "less than 1 ppm, cited from earlier work"}, "[1]": {"system": "child with traumatic brain injury", "conditions": "NO therapy; cited from earlier work"}, "[2]": {"system": "patients with pulmonary fibrosis", "conditions": "inhaled; cited from earlier work"}, "mice models of malaria": {"system": "mice models of malaria", "conditions": "mouse, in vivo; cited from earlier work"}, "dogs": {"system": "dogs", "experiment": "Fourteen-day toxicity study using the delivery devices, dogs", "format": "in vivo", "conditions": "doses well in excess of 80 ppm NO"}, "[3]": {"system": "patients with acute lung injury/acute respiratory distress syndrome", "conditions": "conventional iNO; cited from earlier work"}, "[4]": {"system": "patients with pulmonary tuberculosis", "conditions": "80 ppm; cited from earlier work"}, "COPD patients": {"system": "COPD patients", "conditions": "NO with oxygen, 3 month period, compared to oxygen alone; cited from earlier work"}, "[5]": {"system": "patients with cardiogenic shock due to RVMI", "conditions": "cited from earlier work"}, "rats": {"system": "rats", "experiment": "Fourteen-day toxicity study using the delivery devices, rats", "format": "in vivo", "conditions": "doses well in excess of 80 ppm NO"}, "[6]": {"system": "patents suffering massive pulmonary embolism", "conditions": "inhaled; cited from earlier work"}, "[7]": {"system": "newborns with hypoxic respiratory failure", "conditions": "inhaled; cited from earlier work"}},
  "note": "Read-outs that look alike come from different tables or passages of the source.",
  "data": [
    {"smiles": "[O]N=O", "note": "[NO2, nitrogen dioxide]", "values": [
      {"measurement": "OUTCOME(S)", "setting": "Rabbit", "result": "Structural changes in lung collagen fibers"},
      {"measurement": "OUTCOME(S)", "setting": "Guinea Pig", "result": "Increased protein content of lung lavage fluid"},
      {"measurement": "OUTCOME", "setting": "man; NO2 dose 0.1 ppm, exposure 60 min, asthmatics", "result": "13/16 asthmatics increase in reaction to"},
      {"measurement": "OUTCOME", "setting": "man; NO2 dose 0.7-2.0 ppm, exposure 10 min", "result": "Increase in inspiratory and expiratory flow"},
      {"measurement": "OUTCOME", "setting": "man; NO2 dose 1.6-2.0 ppm, exposure 15 min", "result": "Significant increase in total airway resistance"},
      {"measurement": "OUTCOME(S)", "setting": "Mouse; duration 1 day", "result": "Increased ascorbic acid levels in the liver"},
      {"measurement": "OUTCOME(S)", "setting": "Mouse; duration 90 days", "result": "Depression in serum neutralizing"}
    ]},
    {"smiles": "[N]=O", "note": "[NO, nitric oxide]", "values": [
      {"measurement": "adverse cerebral effects", "setting": "[1]", "result": "No adverse cerebral effects"},
      {"measurement": "arterial oxygen tension", "setting": "[2]", "result": "without a decrease"},
      {"measurement": "pulmonary vascular resistance", "setting": "[2]", "result": "decreased"},
      {"measurement": "ventilation perfusion matching", "setting": "[2]", "result": "maintained"},
      {"measurement": "neurological damage", "setting": "mice models of malaria", "result": "protection"},
      {"measurement": "survival", "setting": "mice models of malaria", "result": "increased chance of survival"},
      {"measurement": "Fourteen-day toxicity study outcome", "setting": "dogs", "result": "successfully been completed"},
      {"measurement": "outcomes (increased PaO2, survival)", "setting": "[3]", "result": "positive outcomes"},
      {"measurement": "safety of delivery", "setting": "[4]", "result": "safely delivered"},
      {"measurement": "oxygenation", "setting": "COPD patients", "result": "did not result in a decrease"},
      {"measurement": "decreased mPAP", "setting": "[5]; NO 80 ppm acutely", "result": 12, "unit": "%"},
      {"measurement": "decreased mRAP", "setting": "[5]; NO 80 ppm acutely", "result": 12, "unit": "%"},
      {"measurement": "improved cardiac index", "setting": "[5]; NO 80 ppm acutely", "result": 24, "unit": "%"},
      {"measurement": "decrease shunt flow", "setting": "[5]; inhaled NO", "result": 56, "unit": "%"},
      {"measurement": "systemic oxygen saturation", "setting": "[5]; inhaled NO", "result": "markedly improved"},
      {"measurement": "Fourteen-day toxicity study outcome", "setting": "rats", "result": "successfully been completed"},
      {"measurement": "systemic blood pressures, heart rate and gas exchange", "setting": "[6]", "result": "improvements"},
      {"measurement": "arterial oxygen levels", "setting": "[7]", "result": "safely improves"},
      {"measurement": "need for Extracorporeal Membrane Oxygenation (ECMO)", "setting": "[7]", "result": "decreases"}
    ]}
  ]
}
